How the values were obtained:
[1] = test system: Canine cardiac lipases; test: Myocardial Lipase Assay; format: biochemical; details: 100 μM compound, 3.0% DMSO, triolein emulsion, pH 6.8, tested in duplicate
Method: All compounds were dissolved in DMSO (final concentration 3.0%) and tested in duplicate at a concentration of 100 μm. Canine cardiac lipases were obtained by extracting washed heart membranes with buffer plus heparin and a small amount of Triton X-100 detergent. Because these enzymes are only active at an oil-water interface, the enzyme reaction is run in an oil-water emulsion that contains triolein substrate, Tris buffer (50 mM, pH 6.8) and a small amount of bovine serum albumin (0.5%) added to stabilize the emulsion. A small amount of tritiated triolein was added to the unlabelled triolein substrate. Tritium-labelled oleic acid released by the lipases was extracted into hexane, separated from unreacted triolein and counted in a scintillation counter. Inhibitory agents reduce the amount of radioactivity appearing in the free fatty acid fraction isolated in the extraction procedure.

[2] = test system: rat adipocyte lipolysis; test: Rat Adipocyte Assay (epinephrine-stimulated lipolysis, glycerol release); format: cell-based; details: epinephrine 3 μM plus methylisobutylxanthine 10 μM, 1 hour at 37° C.; for inhibition at 30 µM: 30 μM compound, read-out: Adipocyte % Inhib. at 30 μM; for IC50: read-out: Adipocyte I50; for inhibition at 200 µM: 200 μM compound, read-out: Adipocyte % Inhib. at 200 μM
Method: Abdominal fat pads were removed from male rats weighing 200-250 grams and placed in Krebs-bicarbonate buffer gassed with 95% O2 /5% CO2. The fat pads were digested with collagenase for 1 hour at 37° C., washed twice with Krebs-bicarbonate buffer and distributed among a set of 20 ml plastic counting vials. Two such vials received only buffer and cells (4 ml) but no angonists or antagonists. The remaining vials received epinephrine (3 μM) plus the phosphodiesterase inhibitor methylisobutylxanthine (10 μM). Test compounds were dissolved in DMSO or water to a concentration of 20 mM or 40 μl was added to the buffer plus cells in the counting vials. The final compound concentration for routine screening was 200 μM (final concentration of DMSO=1%).
The cells were incubated for 1 hour at 37° C. under 95% O2 /5% CO2 atmosphere. The incubation was stopped by placing the vials in crushed ice. The cells and medium were transferred to test tubes, centrifuged and the cell layer removed by aspiration. The aqueous phase was assayed for glycerol using the enzyme glycerol dehydrogenase.
The glycerol dehydrogenase assay for glycerol depends on the enzyme catalyzed conversion of glycerol to glyceraldehyde and NAD to NADH. The assay can detect as little as 5-10 nanomoles of glycerol. The aqueous phase, following removal of cells, usually contained about 50 to 80 nanomoles of glycerol per 300 μl of assayed sample if no inhibitory activity was present. Samples from the control tubes (no agonist) usually contained 0-5 nanomoles of glycerol per 300 μl of sample.

[3] = biological target: Canine cardiac lipases; test: Myocardial Lipase Assay; format: biochemical; details: triolein emulsion, pH 6.8; read-out: Lipase I50

## COc1ccc(NC(=O)Oc2ccc3cccnc3c2)cc1 [Example 1]
[1]
  Lipase % Inh. at 100 μM: 60%
[2]
  inhibition at 30 µM: 0%

## COc1ccc(NC(=O)Oc2ccc3ncccc3c2)cc1 [Example 2, 6-quinolyl-4-methoxy carbanilate]
[1]
  Lipase % Inh. at 100 μM: 64%
[2]
  inhibition at 30 µM: 8%

## COc1ccc(NC(=O)Oc2cccc3ncccc23)cc1 [Example 3, 5-quinolyl-4-methoxy carbanilate]
[1]
  Lipase % Inh. at 100 μM: 63%
[2]
  inhibition at 30 µM: 1%

## COc1ccccc1NC(=O)Oc1ccc2cccnc2c1 [Example 4, 7-quinolyl-2-methoxy carbanilate]
[2]
  IC50: 80 µM
[3]
  IC50: 48 µM

## COc1ccccc1NC(=O)Oc1ccc2ncccc2c1 [Example 5, 6-quinolyl-2-methoxy carbanilate]
[2]
  IC50: 30 µM
[3]
  IC50: 42 µM

## COc1ccccc1NC(=O)Oc1cccc2ncccc12 [Example 6, 5-quinolyl-2-methoxy carbanilate]
[2]
  inhibition at 200 µM: 31%
[3]
  IC50: 48 µM

## COc1cccc(NC(=O)Oc2ccc3cccnc3c2)c1 [Example 7, 7-quinolyl-3-methoxy carbanilate]
[1]
  Lipase % Inh. at 100 μM: 52%
[2]
  inhibition at 200 µM: 25%

## CCOC(=O)c1ccc(NC(=O)Oc2ccc3cccnc3c2)cc1 [Example 8, 7-quinolyl-4-carbethoxy carbanilate]
[1]
  Lipase % Inh. at 100 μM: 46%
[2]
  inhibition at 200 µM: 18%

## O=C(Nc1ccccc1Cl)Oc1ccc2cccnc2c1 [Example 9, 7-quinolyl-2-chloro carbanilate]
[1]
  Lipase % Inh. at 100 μM: 6%

## Cc1ccccc1NC(=O)Oc1ccc2cccnc2c1 [Example 10, 7-quinolyl-2-methyl carbanilate]
[1]
  Lipase % Inh. at 100 μM: 45%
[2]
  inhibition at 200 µM: 20%

## O=C(Nc1ccccc1C(F)(F)F)Oc1ccc2cccnc2c1 [Example 11, 7-quinolyl-2-trifluoromethyl carbanilate]
[1]
  Lipase % Inh. at 100 μM: 12%

## COc1ccc(CCNC(=O)Oc2ccc3cccnc3c2)cc1 [Example 12, 7-quinolyl-4-methoxy phenethyl carbamate]
[1]
  Lipase % Inh. at 100 μM: 97%
[2]; 100 μM compound, read-out: Adipocyte % Inhib. at 100 μM
  inhibition at 100 µM: 84%

Source: patent US4547509A, “5,6,7-Quinoline carbanilates and method of treating ischemic heart disease therewith” (USV Pharmaceutical Corp., priority 1983, dated 1985)
